Laboratory results taken from patent US7888487B2, “Pyrazole derivative, medicinal composition containing the same, medicinal use thereof and intermediate in producing the same” (Kissei Pharmaceutical Co., Ltd., priority 2002, dated 2011).

Target: T1, human SMINT (Homo sapiens, UniProt Q2M3M2)
T1 construct: expressed in transfected cells; host or cells: COS-7 cells (RIKEN CELL BANK RCB0539), transient lipofection of SMINT/pME18S-FL
T1 sequence (Q2M3M2 1-681): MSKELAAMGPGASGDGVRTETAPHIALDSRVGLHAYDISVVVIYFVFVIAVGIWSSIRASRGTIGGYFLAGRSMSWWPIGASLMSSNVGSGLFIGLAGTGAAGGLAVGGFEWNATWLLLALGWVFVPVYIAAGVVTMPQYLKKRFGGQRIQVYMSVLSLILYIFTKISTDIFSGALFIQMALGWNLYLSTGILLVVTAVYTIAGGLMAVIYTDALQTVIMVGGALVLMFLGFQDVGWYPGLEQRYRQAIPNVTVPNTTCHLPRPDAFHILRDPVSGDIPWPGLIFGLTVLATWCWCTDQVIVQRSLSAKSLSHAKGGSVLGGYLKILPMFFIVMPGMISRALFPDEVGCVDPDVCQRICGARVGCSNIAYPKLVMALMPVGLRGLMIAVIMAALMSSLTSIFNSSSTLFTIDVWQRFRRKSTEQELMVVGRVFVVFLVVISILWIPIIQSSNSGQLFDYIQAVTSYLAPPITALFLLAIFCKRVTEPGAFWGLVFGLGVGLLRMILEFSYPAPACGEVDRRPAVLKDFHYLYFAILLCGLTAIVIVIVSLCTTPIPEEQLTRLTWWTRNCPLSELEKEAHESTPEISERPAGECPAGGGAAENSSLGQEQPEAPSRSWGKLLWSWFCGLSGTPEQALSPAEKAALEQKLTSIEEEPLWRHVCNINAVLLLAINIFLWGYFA
Experiment: Confirmatory test for substrate specificity of human SMINT (inhibition assay of methyl-α-D-glucopyranoside uptake activity with natural sugars)
Type: cell-based
Details: COS-7 cells transiently expressing human SMINT; 1 mM α-MG, 1 hour, 37° C.
Source text: Confirmatory Test for Substrate Specificity of Human SMINT
(§1) 1) Preparation of Cells Transiently Expressing Human SMINT
Human SMINT-carrying expression plasmid SMINT/pME18S-FL (denotation of bacteria: Escherichia coli/SMINT2010324), which was deposited with NITE Patent Microorganisms Depositary on Mar. 12, 2002, was transfected to COS-7 cells (RIKEN CELL BANK RCB0539) by lipofection method. LIPOFECTAMINE PLUS reagent (Invitrogen) was used as the lipofection reagent. A day before the lipofection, COS-7 cells were suspended in D-MEM medium (Invitrogen) at 6×10^6 cells per 1 mL, and dispensed 50 μL per well of 96-well plate. The lipofection was performed by the following methods. For each well, 0.1 μg of the plasmid was diluted with 10 μL of D-MEM, added 0.5 μL of PLUS reagent, mixed gently, and kept stand for 15 minutes to prepare Plasmid Dilute Solution. For each well, 0.5 μL of LIPOFECTAMINE reagent was diluted with 10 μL of D-MEM to prepare LIPOFECTAMINE Dilute Solution. The Plasmid Dilute Solution was mixed with an equal volume of the LIPOFECTAMINE Dilute Solution, kept stand for 15 minutes, dispensed 20 μL per well of cell culture medium, and incubated at 37° C. under 5% CO2 for 5 hours. Then D-MEM containing 16.7% fetal bovine serum (Sanko Jun-yaku) was dispensed 100 μL per well. […]
(§2) To Uptake Buffer consisting of 140 mM sodium chloride, 2 mM potassium chloride, 1 mM calcium chloride, 1 mM magnesium chloride, 10 mM 2-[2-(2-hydroxyethyl)-1-piperazinyl]-ethanesulfonic acid, and 5 mM tris(hydroxymethyl)aminomethane (pH 7.4), was added methyl-α-D-glucopyranoside (α-MG) composed of its non-radiolabeled form and ^14C-labeled form at 1 mM as the final concentration. […] To the cell lysates were added 150 μL per well of MicroScint 40 (Packard), mixed well, and the radioactivity was measured in a microscintillation counter TOPCOUNT (Packard). α-MG uptake by the cells treated with each concentration of test compounds was calculated as relative activity to control group, which is set as 100% uptake after deducting the basal uptake. […]

| recognition as substrate by SMINT (inhibition of α-MG uptake, FIG. 2) | SMILES |
| --- | --- |
| recognizes | OC[C@H]1OC[C@H](O)[C@@H](O)[C@@H]1O [1,5-anhydroglucitol] |
| recognizes | O=C(CO)[C@@H](O)[C@H](O)[C@H](O)CO [fructose] |
| not | O=C[C@H](O)[C@@H](O)[C@@H](O)[C@H](O)CO [galactose] |

Target: T2, human 1,5-anhydroglucitol/fructose/mannose transporter (human SMINT) (Homo sapiens, UniProt Q2M3M2)
T2 construct: expressed in transfected cells; host or cells: COS-7 cells (RIKEN CELL BANK RCB0539), transient lipofection of SMINT/pME18S-FL
T2 sequence (Q2M3M2 1-681): T1 sequence (Q2M3M2 1-681)
Experiment: Confirmatory test for inhibitory activity on human 1,5-anhydroglucitol/fructose/mannose transporter (inhibition assay of methyl-α-D-glucopyranoside uptake activity)
Type: cell-based
Details: COS-7 cells transiently expressing human SMINT; uptake of 1 mM methyl-α-D-glucopyranoside (α-MG), 1 hour, 37° C.; logit plot analysis
Method: Human SMINT-carrying expression plasmid SMINT/pME18S-FL (denotation of bacteria: Escherichia coli/SMINT2010324), which was deposited with NITE Patent Microorganisms Depositary on Mar. 12, 2002, was transfected to COS-7 cells (RIKEN CELL BANK RCB0539) by lipofection method. LIPOFECTAMINE PLUS reagent (Invitrogen) was used as the lipofection reagent. A day before the lipofection, COS-7 cells were suspended in D-MEM medium (Invitrogen) at 6×10^6 cells per 1 mL, and dispensed 50 μL per well of 96-well plate. The lipofection was performed by the following methods. For each well, 0.1 μg of the plasmid was diluted with 10 μL of D-MEM, added 0.5 μL of PLUS reagent, mixed gently, and kept stand for 15 minutes to prepare Plasmid Dilute Solution. For each well, 0.5 μL of LIPOFECTAMINE reagent was diluted with 10 μL of D-MEM to prepare LIPOFECTAMINE Dilute Solution. The Plasmid Dilute Solution was mixed with an equal volume of the LIPOFECTAMINE Dilute Solution, kept stand for 15 minutes, dispensed 20 μL per well of cell culture medium, and incubated at 37° C. under 5% CO2 for 5 hours. Then D-MEM containing 16.7% fetal bovine serum (Sanko Jun-yaku) was dispensed 100 μL per well. After 2 days culture, the cells were used for the inhibition assay of methyl-α-D-glucopyranoside uptake activity.
Confirmatory Test for Inhibitory Activity on Human 1,5-anhydroglucitol/fructose/mannose Transporter
as §1
The cells were prepared according to the method described in 1) of Test Example 2.
2) Inhibition Assay of methyl-α-D-glucopyranoside Uptake Activity
as §2, with “concentration. For measurement of basal uptake, Basal Buffer was prepared by the addition of 140 mM choline chloride instead of sodium chloride of the Uptake Buffer. In order to determine the substrate specificity among natural sugars, natural sugars were solubilized in distilled water, diluted with distilled water into appropriate concentrations, and added to the Uptake Buffer to prepare Assay Buffer.” for “concentration.”

| IC50 | SMILES |
| --- | --- |
| 92 nM | COc1ccc(Cc2c(O[C@@H]3O[C@H](CO)[C@@H](O)[C@H](O)[C@H]3O)nn(C(C)C)c2-c2ccc(OC)cc2)cc1 [Example 1] |
| 444 nM | CC(C)c1c(Cc2ccccc2)c(O[C@@H]2O[C@H](CO)[C@@H](O)[C@H](O)[C@H]2O)nn1C(C)C [Example 87, 4-Benzyl-3-(β-D-glucopyranosyloxy)-1,5-diisopropyl-1H-pyrazole] |
| 245 nM | COc1ccc(Cc2c(O[C@@H]3O[C@H](CO)[C@@H](O)[C@H](O)[C@H]3O)nn(-c3ccccc3F)c2C(C)C)cc1 [Example 99] |
| 296 nM | COc1ccc(Cc2c(O[C@@H]3O[C@H](CO)[C@@H](O)[C@H](O)[C@H]3O)nn(C(C)C)c2-c2ccc3c(c2)OCCO3)cc1 [Example 119] |
